The record followed here is patent US8293274B2, “Intestinal absorptive anti-tumor agent” (Kabushiki Kaisha Sangi, priority 2005, dated 2012).

Counter-ions that a name gives are not always drawn.

For orientation: AUC(0-t) means exposure summed from dosing to a finite time, without extrapolation to infinity. A lower AUC(0-t) goes with low exposure. By Cmax is commonly meant the maximum level reached in the sampled fluid or tissue. For orientation: Tmax means the time from dosing to the highest level.

The data set can be described thus: Intestinal absorption test of various antitumor agents (plasma concentration by gas/liquid chromatography). The procedure: Rats were fasted for 16 hours and then forced oral administration to the stomach was performed using an oral gastric tube for rats.
Blood was collected from the tail vein prior to administration and 15 and 30 minutes, 1, 2, 3, 4, 6, 8 and 24 hours after administration. The collected blood was centrifuged at 4° C. for 15 minutes at 3,000 rpm to obtain plasma, and then the plasma concentrations of the various antitumor agents were measured.
These concentrations were measured using gas chromatography and liquid chromatography.

Where [1] appears, read: male, Sprague-Dawley, rat, in vivo, po, 50 mg/kg.
The mark [2] stands for this setting: male, Sprague-Dawley, rat, in vivo, po, 0.2 mg/kg.
The mark [3] stands for this setting: bleomycin hydrochloride in plasma, rats fasted 16 hours, oral, 2.0 mg/kg.

`O=P1(NCCCl)OCCCN1CCCl` (stereo not drawn) [Comparative Test Example 4-2, ifosfamide]: under setting [1], the exposure AUC(0-t) was found to be 1240 ng·h/mL, the Cmax was determined as 250 ng/mL and the Tmax turned out to be 45 min.

For `CC[C@]1(O)C[C@H]2CN(CCc3c([nH]c4ccccc34)[C@@](C(=O)OC)(c3cc4c(cc3OC)N(C=O)[C@H]3[C@@](O)(C(=O)OC)[C@H](OC(C)=O)[C@]5(CC)C=CCN6CC[C@]43[C@@H]65)C2)C1` [Comparative Test Example 4-4, vincristine sulfate], under setting [2], the exposure AUC(0-t) was found to be 1110 ng·h/mL, the maximum concentration (Cmax) turned out to be 90 ng/mL and the Tmax was found to be 49.8 min.

Turning to “bleomycin hydrochloride [Comparative Test Example 4-3]”, under setting [3], the AUC0-24 h is 520 ng·h/mL, the highest concentration (Cmax) was 120 ng/mL and the Tmax was 85.2 min.
